The results in this text go back to US20260184706A1, “PHENYLSULFONAMIDE DERIVATIVES, PREPARATION METHOD THEREFOR, AND PHARMACEUTICAL COMPOSITION FOR PREVENTION OR TREATMENT OF CANCER CONTAINING SAME AS ACTIVE INGREDIENT” (Korea Research Institute of Chemical Technology, priority 2022, published 2026).

Test [1] addresses recombinant human GCN2 protein (Homo sapiens, UniProt Q9P2K8). As to the kind of experiment: General control nonderepressible 2 (GCN2) inhibitory capacity, 33P-ATP filter assay. In kind it is biochemical. As to conditions: recombinant human GCN2, 70 uM [gamma-33P-ATP], 40 minutes, room temperature.
In test [2] the target is T1, recombinant human PERK protein (Homo sapiens, UniProt Q9NZJ5).
T1 sequence (Q9NZJ5 30-1116): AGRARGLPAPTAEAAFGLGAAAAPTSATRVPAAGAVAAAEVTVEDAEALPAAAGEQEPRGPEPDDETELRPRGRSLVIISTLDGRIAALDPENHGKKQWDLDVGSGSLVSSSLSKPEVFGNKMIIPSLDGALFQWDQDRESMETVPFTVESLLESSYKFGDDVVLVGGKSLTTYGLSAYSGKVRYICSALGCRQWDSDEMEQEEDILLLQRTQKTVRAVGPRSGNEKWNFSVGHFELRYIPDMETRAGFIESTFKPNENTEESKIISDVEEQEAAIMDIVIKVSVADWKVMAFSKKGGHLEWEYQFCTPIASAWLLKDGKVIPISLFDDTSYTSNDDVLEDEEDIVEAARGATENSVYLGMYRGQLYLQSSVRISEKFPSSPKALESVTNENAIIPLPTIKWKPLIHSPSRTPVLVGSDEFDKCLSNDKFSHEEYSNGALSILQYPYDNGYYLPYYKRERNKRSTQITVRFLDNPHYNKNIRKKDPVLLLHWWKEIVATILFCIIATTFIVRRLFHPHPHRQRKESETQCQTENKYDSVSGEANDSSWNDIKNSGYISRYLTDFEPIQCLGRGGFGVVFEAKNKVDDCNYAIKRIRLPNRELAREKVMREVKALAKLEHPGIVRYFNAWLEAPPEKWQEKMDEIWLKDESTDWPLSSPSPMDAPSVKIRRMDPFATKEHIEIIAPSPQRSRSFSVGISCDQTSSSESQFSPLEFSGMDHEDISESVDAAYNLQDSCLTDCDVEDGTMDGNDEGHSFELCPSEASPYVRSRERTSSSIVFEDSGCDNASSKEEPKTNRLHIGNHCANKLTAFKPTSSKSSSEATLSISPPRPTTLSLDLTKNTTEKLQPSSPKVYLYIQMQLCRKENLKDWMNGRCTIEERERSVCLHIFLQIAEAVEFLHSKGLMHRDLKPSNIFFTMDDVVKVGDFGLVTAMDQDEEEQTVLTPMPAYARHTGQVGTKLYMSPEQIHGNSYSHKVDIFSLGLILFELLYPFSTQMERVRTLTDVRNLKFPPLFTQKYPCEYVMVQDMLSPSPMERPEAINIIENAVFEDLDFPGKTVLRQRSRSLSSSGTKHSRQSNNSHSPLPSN
As to the kind of experiment: PKR-like endoplasmic reticulum kinase (PERK) inhibitory capacity, 33P-ATP filter assay. Format: biochemical. As to conditions: 15 uM [gamma-33P-ATP], 40 minutes, room temperature.

For orientation: IC50 means the midpoint of a concentration-inhibition curve.

Chain of recombinant human GCN2 protein (Q9P2K8 whole entry): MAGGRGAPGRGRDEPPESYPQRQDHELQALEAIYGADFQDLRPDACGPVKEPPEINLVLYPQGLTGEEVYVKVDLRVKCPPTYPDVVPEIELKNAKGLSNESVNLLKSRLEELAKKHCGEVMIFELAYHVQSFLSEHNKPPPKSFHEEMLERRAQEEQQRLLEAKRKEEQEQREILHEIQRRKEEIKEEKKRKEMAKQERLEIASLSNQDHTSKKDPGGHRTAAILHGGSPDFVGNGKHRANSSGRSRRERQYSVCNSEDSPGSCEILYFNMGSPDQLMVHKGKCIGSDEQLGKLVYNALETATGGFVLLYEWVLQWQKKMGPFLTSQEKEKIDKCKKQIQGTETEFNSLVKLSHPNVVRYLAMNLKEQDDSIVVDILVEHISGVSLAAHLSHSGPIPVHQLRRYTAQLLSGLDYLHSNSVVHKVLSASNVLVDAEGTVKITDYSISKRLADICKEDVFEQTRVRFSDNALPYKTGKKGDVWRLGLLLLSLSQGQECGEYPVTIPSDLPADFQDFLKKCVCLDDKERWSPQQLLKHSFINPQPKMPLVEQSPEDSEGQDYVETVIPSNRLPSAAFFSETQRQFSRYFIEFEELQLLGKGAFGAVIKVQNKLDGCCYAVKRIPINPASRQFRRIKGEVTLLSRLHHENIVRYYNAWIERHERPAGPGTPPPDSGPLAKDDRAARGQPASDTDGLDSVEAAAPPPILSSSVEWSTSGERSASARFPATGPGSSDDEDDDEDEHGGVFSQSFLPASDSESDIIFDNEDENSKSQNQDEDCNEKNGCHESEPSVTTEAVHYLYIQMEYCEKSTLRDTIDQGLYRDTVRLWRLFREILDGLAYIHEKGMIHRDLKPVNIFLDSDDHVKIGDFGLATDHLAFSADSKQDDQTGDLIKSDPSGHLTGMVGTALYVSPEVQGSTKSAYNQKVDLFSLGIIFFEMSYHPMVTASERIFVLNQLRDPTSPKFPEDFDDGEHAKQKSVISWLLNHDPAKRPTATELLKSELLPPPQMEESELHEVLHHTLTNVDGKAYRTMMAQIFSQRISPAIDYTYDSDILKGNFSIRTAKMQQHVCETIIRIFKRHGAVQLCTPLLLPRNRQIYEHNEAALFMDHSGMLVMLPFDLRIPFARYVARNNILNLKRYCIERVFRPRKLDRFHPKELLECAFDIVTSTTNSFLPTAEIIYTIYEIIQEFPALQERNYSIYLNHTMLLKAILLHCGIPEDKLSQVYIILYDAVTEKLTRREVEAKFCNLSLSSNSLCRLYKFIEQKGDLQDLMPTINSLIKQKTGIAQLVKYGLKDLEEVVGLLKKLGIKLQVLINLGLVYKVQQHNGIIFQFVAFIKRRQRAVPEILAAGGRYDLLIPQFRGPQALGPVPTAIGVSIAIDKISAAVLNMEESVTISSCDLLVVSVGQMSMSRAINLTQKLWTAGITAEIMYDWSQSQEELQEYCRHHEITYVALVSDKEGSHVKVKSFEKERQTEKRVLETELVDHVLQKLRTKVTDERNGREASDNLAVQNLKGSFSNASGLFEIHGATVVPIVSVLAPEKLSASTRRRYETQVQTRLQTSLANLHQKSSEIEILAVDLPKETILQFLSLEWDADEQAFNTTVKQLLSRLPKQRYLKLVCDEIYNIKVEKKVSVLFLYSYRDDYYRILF

On to `COc1ncc(Cl)cc1S(=O)(=O)Nc1ccc(F)c(-n2cc(C(F)F)c3nc(N)ncc3c2=O)c1F` [Example 22, N-(3-(2-amino-8-(difluoromethyl)-5-oxopirido[4,3-d]pyrimidin-6(5H)-yl)-2,4-difluorophenyl)-5-chloro-2-methoxypyridine-3-sulfonamide], for which the IC50 in test [1] and in test [2] was < 100 nM in each case.
As to `Nc1ncc2c(=O)n(-c3c(F)ccc(NS(=O)(=O)c4cc(Cl)cnc4Cl)c3F)ccc2n1` [Example 27, N-(3-(2-amino-5-oxopirido[4,3-d]pyrimidin-6(5H)-yl)-2,4-difluorophenyl)-2,5-dichloropyridine-3-sulfonamide], the IC50 in test [1] and in test [2] was < 100 nM throughout.
In the case of `Nc1ncc2c(=O)n(-c3c(F)ccc(NS(=O)(=O)c4cccc5ccccc45)c3F)ccc2n1` [Example 29, N-(3-(2-amino-5-oxopirido[4,3-d]pyrimidin-6(5H)-yl)-2,4-difluorophenyl)naphthalene-1-sulfonamide], the IC50 in test [1] and in test [2] was < 100 nM each time.
As to `CNc1ncc2c(=O)n(-c3c(F)ccc(NS(=O)(=O)c4cc(Cl)cnc4OC)c3F)ccc2n1` [Example 32, 5-chloro-N-(2,4-difluoro-3-(2-(methylamino)-5-oxopirido[4,3-d]pyrimidin-6(5H)-yl)phenyl)-2-methoxypyridine-3-sulfonamide], the IC50 in test [1] and in test [2] was < 100 nM each time.
Take `COc1ncc(Cl)cc1S(=O)(=O)Nc1ccc(F)c(-n2c(=O)c3cnc(N)nc3n(C)c2=O)c1F` [Example 44, N-(3-(7-amino-1-methyl-2,4-dioxo-1,4-dihydropyrimido[4,5-d]pyrimidin-3(2H)-yl)-2,4-difluorophenyl)-5-chloro-2-methoxypyridine-3-sulfonamide]: the IC50 in test [1] was 100 to 300 nM; in test [2], < 100 nM.
For `COc1ncc(Br)cc1S(=O)(=O)Nc1ccc(F)c(-n2c(=O)c3cnc(N)nc3n(C)c2=O)c1F` [Example 46, N-(3-(7-amino-1-methyl-2,4-dioxo-1,4-dihydropyrimido[4,5-d]pyrimidin-3(2H)-yl)-2,4-difluorophenyl)-5-bromo-2-methoxypyridine-3-sulfonamide], the IC50 in test [1] and in test [2] was < 100 nM throughout.
